Experimental findings from BindingDB's records for doi:10.1021/jm991079p (University of Heidelberg, 2000) are described below.

Assay [1] has as its target Sigma-2 receptor (TMEM97) (Rattus norvegicus). The experiment in a line: Binding affinity was measured on Sigma receptor type 2 with rat liver membranes and [3H]- DTG as ligand.
Assay [2] concerns the target Sigma non-opioid intracellular receptor 1 (Cavia porcellus) (UniProt Q60492). The assay can be described thus: Binding affinity was measured on Sigma receptor type 1 with guinea pig membranes and [3H]- pentazocine as ligand.

Structures are written as SMILES. pKi: −log10 of the molar value.

Sequence of Sigma non-opioid intracellular receptor 1 (Cavia porcellus) (Q60492 whole entry, looked up): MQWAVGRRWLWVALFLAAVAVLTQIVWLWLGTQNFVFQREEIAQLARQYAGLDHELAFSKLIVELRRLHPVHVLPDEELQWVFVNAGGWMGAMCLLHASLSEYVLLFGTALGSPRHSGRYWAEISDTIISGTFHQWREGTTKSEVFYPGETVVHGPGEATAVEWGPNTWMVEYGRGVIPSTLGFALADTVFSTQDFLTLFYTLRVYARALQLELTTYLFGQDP

Turning to `CCN(CC)CCNC(=O)c1cc(I)ccc1OC` [N-(2-Diethylamino-ethyl)-5-iodo-2-methoxy-benzamide], the pKi – broadly, the Ki on a negative log10 scale, so that one unit is a factor of ten – was 5.99 in assay [1] and 7.04 in assay [2].

Take `CCN(CC)CCNC(=O)c1cc(I)c(N)cc1OC`: the pKi in assay [1] was 4.67; in assay [2], 6.32.

For `CCN(CC)CCNC(=O)c1cc(I)c(NC(C)=O)cc1OC` [4-acetamido-N-(2-(diethylamino)ethyl)-5-iodo-2-methoxybenzamide], the figures for the pKi in assay [1] and in assay [2] were 3.94 and 5.28, respectively.

For the compound `CCN(CC)CCNC(=O)c1cc(Br)c(N)c(I)c1OC` [4-Amino-5-bromo-N-(2-diethylamino-ethyl)-3-iodo-2-methoxy-benzamide], the pKi was 5.63 in assay [1] and 6.56 in assay [2].

On to `CCN(CC)CCNC(=O)c1ccc(OC)c(I)c1` [N-(2-Diethylamino-ethyl)-3-iodo-4-methoxy-benzamide (IMBA)], for which the pKi in assay [1] was 5.19; in assay [2], 6.60.
